Experimental data from paper PMC11915375 (ACS Infectious Diseases, 2025).
Where two headings read alike, the source gives them in different places.

Experiments:
T. cruzi CA-I/72 = test: T. cruzi in vitro assay, C2C12 host cell; format: cell-based, Trypanosoma cruzi
T. brucei = T. brucei proliferation inhibition assay; format: cell-based, Trypanosoma brucei; details: read-out: T. brucei EC50 ± S.D.
[1] = tested on: Leishmania major amastigotes; test: Leishmania major amastigote assay; format: cell-based; details: read-out: L. maj EC50
L. donovani = L. donovani in vitro assay; format: cell-based, Leishmania donovani
[2] = Leishmania donovani, read-out: L. don EC50, B10R host cell line
[3] = Trypanosoma cruzi, C2C12, read-out: T. cruzi EC50

Compound | EC50 (T. cruzi CA-I/72; read-out: T. cruzi EC50, C2C12 host cell) [µM] | EC50 (T. brucei) [µM] | EC50 ([1]; amastigotes) [µM] | EC50 (L. donovani; [2]) [µM] | EC50 (T. cruzi CA-I/72; [3]) [µM] | EC50 (T. brucei; Trypanosoma brucei) [µM] | EC50 ([1]; Leishmania major) [µM] | EC50 (L. donovani; read-out: L. don EC50, B10R host cell line) [µM]
7-(4-((4-Methyl-1,4-diazepan-1-yl)sulfonyl)phenyl)-N-(4-(trifluoromethoxy)phenyl)cinnolin-4-amine [Compound 20b] | > 10 | 0.58 ± 0.25 | > 3.6 |  |  |  |  | 
C[C@@H]1[C@H](O)[C@@H](C)/C=C/C=C/C=C/C=C/C=C/C=C/C=C/[C@H](O[C@@H]2O[C@H](C)[C@@H](O)[C@H](N)[C@@H]2O)C[C@@H]2O[C@](O)(C[C@@H](O)C[C@@H](O)[C@H](O)CC[C@@H](O)C[C@@H](O)CC(=O)O[C@H]1C)C[C@H](O)[C@H]2C(=O)O [Amphotericin B, reference compound] |  |  |  | 0.07 |  |  |  | 
O=C(Cn1ccnc1[N+](=O)[O-])NCc1ccccc1 [Benznidazole, reference compound] |  |  |  |  | 3.77 |  |  | 
Cc1ccc(Nc2cnnc3ccc(-c4ccc(S(=O)(=O)N5CCN(C)CC5)cc4)cc23)cn1 [Compound 13a, 6-(4-((4-Methylpiperazin-1-yl)sulfonyl)phenyl)-N-(6-methylpyridin-3-yl)cinnolin-4-amine] |  |  |  | > 10 | 8.2 | 1.3 ± 0.027 | > 21 | 
CN1CCN(S(=O)(=O)c2ccc(-c3ccc4nncc(Nc5ncc(Cl)cn5)c4c3)cc2)CC1 [Compound 14a, N-(5-Chloropyrimidin-2-yl)-6-(4-((4-methylpiperazin-1-yl)sulfonyl)phenyl)cinnolin-4-amine] |  |  |  |  | 4.1 | 0.82 ± 0.19 | 0.005 | 0.069
CN1CCN(S(=O)(=O)c2ccc(-c3ccc4nncc(Nc5cnccn5)c4c3)cc2)CC1 [Compound 15a, 6-(4-((4-Methylpiperazin-1-yl)sulfonyl)phenyl)-N-(pyrazin-2-yl)cinnolin-4-amine] |  |  |  | > 10 | > 10 | 1.2 ± 0.18 | 7.8 | 
CN1CCN(S(=O)(=O)c2ccc(-c3ccc4c(Nc5cnccn5)cnnc4c3)cc2)CC1 [Compound 15b, 7-(4-((4-Methylpiperazin-1-yl)sulfonyl)phenyl)-N-(pyrazin-2-yl)cinnolin-4-amine] |  |  |  | 5.52 | 6.5 ± 2.3 | 9.7 ± 2.1 | > 22 | 
CN1CCN(S(=O)(=O)c2ccc(-c3ccc4nncc(Nc5ncccn5)c4c3)cc2)CC1 [Compound 16a, 6-(4-((4-Methylpiperazin-1-yl)sulfonyl)phenyl)-N-(pyrimidin-2-yl)cinnolin-4-amine] |  |  |  | 9 | > 10 |  | > 22 | 
CN1CCN(S(=O)(=O)c2ccc(-c3ccc4c(Nc5ncccn5)cnnc4c3)cc2)CC1 [Compound 16b, 7-(4-((4-Methylpiperazin-1-yl)sulfonyl)phenyl)-N-(pyrimidin-2-yl)cinnolin-4-amine] |  |  |  | > 10 | > 10 | 11 ± 1.5 | > 11 | 
COc1ccc(Nc2cnnc3ccc(-c4ccc(S(=O)(=O)N5CCN(C)CC5)cc4)cc23)cc1Cl [Compound 17a, N-(3-Chloro-4-methoxyphenyl)-6-(4-((4-methylpiperazin-1-yl)sulfonyl)phenyl)cinnolin-4-amine] |  |  |  | 9.3 | > 10 | 1.6 ± 0.36 | > 19 | 
COc1ccc(Nc2cnnc3ccc(-c4ccc(S(=O)(=O)N5CCN(C)CC5)cc4)cc23)cc1 [Compound 18a, N-(4-Methoxyphenyl)-6-(4-((4-methylpiperazin-1-yl)sulfonyl)phenyl)cinnolin-4-amine] |  |  |  | 3.4 | 8 | 0.39 ± 0.2 | > 20 | 
COc1ccc(Nc2cnnc3cc(-c4ccc(S(=O)(=O)N5CCN(C)CC5)cc4)ccc23)cc1 [Compound 18b, N-(4-Methoxyphenyl)-7-(4-((4-methylpiperazin-1-yl)sulfonyl)phenyl)cinnolin-4-amine] |  |  |  |  | 3.2 | 12 ± 0.63 | > 20 | 
COc1ccc(Nc2cnnc3ccc(-c4ccc(S(=O)(=O)N5CCN(C)CC5)cc4)cc23)nc1 [Compound 19a, N-(5-Methoxypyridin-2-yl)-6-(4-((4-methylpiperazin-1-yl)sulfonyl)phenyl)cinnolin-4-amine] |  |  |  | 4.9 | 3.8 | 1.9 ± 0.073 | > 20 | 
COc1ccc(Nc2cnnc3cc(-c4ccc(S(=O)(=O)N5CCN(C)CC5)cc4)ccc23)nc1 [Compound 19b, N-(5-Methoxypyridin-2-yl)-7-(4-((4-methylpiperazin-1-yl)sulfonyl)phenyl)cinnolin-4-amine] |  |  |  | > 10 | > 10 |  | > 20 | 
CN1CCN(S(=O)(=O)c2ccc(-c3ccc4nncc(Nc5ccc(OC(F)(F)F)cc5)c4c3)cc2)CC1 [Compound 20a, 6-(4-((4-Methylpiperazin-1-yl)sulfonyl)phenyl)-N-(4-(trifluoromethoxy)phenyl)cinnolin-4-amine] |  |  |  | 0.11 | 6.8 | 0.35 ± 0.26 | 4.8 | 
COc1cnc(Nc2cnnc3ccc(-c4ccc(S(=O)(=O)N5CCN(C)CC5)cc4)cc23)nc1 [Compound 21a, N-(5-Methoxypyrimidin-2-yl)-6-(4-((4-methylpiperazin-1-yl)sulfonyl)phenyl)cinnolin-4-amine] |  |  |  | 5.77 | 1.3 | 6.6 ± 1.7 | > 4.1 | 
CN1CCN(c2ccc(-c3ccc4nncc(Nc5ncc(Cl)cn5)c4c3)cc2)CC1 [Compound 22a, N-(5-Chloropyrimidin-2-yl)-6-(4-(4-methylpiperazin-1-yl)phenyl)cinnolin-4-amine] |  |  |  | > 10 | 0.31 | 0.15 ± 0.068 | > 4.6 | 
CN1CCN(c2ccc(-c3ccc4c(Nc5ncc(Cl)cn5)cnnc4c3)cc2)CC1 [Compound 22b, N-(5-Chloropyrimidin-2-yl)-7-(4-(4-methylpiperazin-1-yl)phenyl)cinnolin-4-amine] |  |  |  | > 10 | 2.3 | 0.72 ± 0.47 | 4.2 | 
COc1ccc(Nc2cnnc3ccc(-c4ccc(N5CCN(C)CC5)cc4)cc23)cc1 [Compound 23a, N-(4-Methoxyphenyl)-6-(4-(4-methylpiperazin-1-yl)phenyl)cinnolin-4-amine] |  |  |  | 2.3 | 1.7 | 0.31 ± 0.18 | 4.7 | 
COc1ccc(Nc2cnnc3cc(-c4ccc(N5CCN(C)CC5)cc4)ccc23)cc1 [Compound 23b, N-(4-Methoxyphenyl)-7-(4-(4-methylpiperazin-1-yl)phenyl)cinnolin-4-amine] |  |  |  |  | 1.1 | 0.078 ± 0.031 | > 24 | 
CN1CCN(c2ccc(-c3ccc4nncc(Nc5ccc(OC(F)(F)F)cc5)c4c3)cc2)CC1 [Compound 24a, 6-(4-(4-Methylpiperazin-1-yl)phenyl)-N-(4-(trifluoromethoxy)phenyl)cinnolin-4-amine] |  |  |  | 0.52 | 0.87 | 0.41 ± 0.024 | > 21 | 
COc1cnc(Nc2cnnc3ccc(-c4ccc(N5CCN(C)CC5)cc4)cc23)nc1 [Compound 25a, N-(5-Methoxypyrimidin-2-yl)-6-(4-(4-methylpiperazin-1-yl)phenyl)cinnolin-4-amine] |  |  |  | 9.4 | 6.1 | 1.2 ± 0.38 | > 4.7 | 
CN1CCN(c2ncc(-c3ccc4nncc(Nc5ncc(Cl)cn5)c4c3)cn2)CC1 [Compound 26a, N-(5-Chloropyrimidin-2-yl)-6-(2-(4-methylpiperazin-1-yl)pyrimidin-5-yl)cinnolin-4-amine] |  |  |  | > 10 | 2.7 |  | > 4.6 | 
COc1ccc(Nc2cnnc3ccc(-c4cnc(N5CCN(C)CC5)nc4)cc23)cc1 [Compound 27a, N-(4-Methoxyphenyl)-6-(2-(4-methylpiperazin-1-yl)pyrimidin-5-yl)cinnolin-4-amine] |  |  |  | > 10 | 4.4 | 1.3 ± 0.27 | > 23 | 
COc1ccc(Nc2cnnc3cc(-c4cnc(N5CCN(C)CC5)nc4)ccc23)cc1 [Compound 27b, N-(4-Methoxyphenyl)-7-(2-(4-methylpiperazin-1-yl)pyrimidin-5-yl)cinnolin-4-amine] |  |  |  |  | 3.3 | 0.36 ± 0.076 | > 4.7 | 
CN1CCN(c2ncc(-c3ccc4nncc(Nc5ccc(OC(F)(F)F)cc5)c4c3)cn2)CC1 [Compound 28a, 6-(2-(4-Methylpiperazin-1-yl)pyrimidin-5-yl)-N-(4-(trifluoromethoxy)phenyl)cinnolin-4-amine] |  |  |  | 1.5 | 4.2 | 1 ± 0.12 | > 21 | 
CN1CCCN(c2ncc(-c3ccc4nncc(Nc5ncc(Cl)cn5)c4c3)cn2)CC1 [Compound 29a, N-(5-Chloropyrimidin-2-yl)-6-(2-(4-methyl-1,4-diazepan-1-yl)pyrimidin-5-yl)cinnolin-4-amine] |  |  |  | 0.22 | 6.7 | 1.7 ± 0.5 | > 22 | 
COc1ccc(Nc2cnnc3ccc(-c4cnc(N5CCCN(C)CC5)nc4)cc23)cc1 [Compound 30a, N-(4-Methoxyphenyl)-6-(2-(4-methyl-1,4-diazepan-1-yl)pyrimidin-5-yl)cinnolin-4-amine] |  |  |  | > 10 | 5.1 | 2.1 ± 0.64 | > 23 | 
COc1ccc(Nc2cnnc3cc(-c4cnc(N5CCCN(C)CC5)nc4)ccc23)cc1 [Compound 30b, N-(4-Methoxyphenyl)-7-(2-(4-methyl-1,4-diazepan-1-yl)pyrimidin-5-yl)cinnolin-4-amine] |  |  |  |  | 0.29 | 0.24 ± 0.088 | > 23 | 
COc1cnc(Nc2cnnc3ccc(-c4ccc(S(=O)(=O)N5CCCN(C)CC5)cc4)cc23)nc1 [Compound 35a, N-(5-Methoxypyrimidin-2-yl)-6-(4-((4-methyl-1,4-diazepan-1-yl)sulfonyl)phenyl)cinnolin-4-amine] |  |  |  |  | > 10 | 0.27 ± 0.008 | > 20 | 
